The source of these data is patent publication US9556115B2, “Sulfonamides for the prevention of diabetes” (Dompé S.P.A., priority 2009, dated 2017).

The assay relates to MLD-STZ-induced diabetes in male C57BL/6J mice. The assay can be described thus: Diabetes induction after multiple low dose (MLD)-streptozotocin (STZ) injections. It counts as in vivo, mouse. The conditions noted are these: for glycemic levels after development of diabetes vs control mice / time to develop the disease compared to controls: mice injected with STZ, summary statement. As for the experimental part: Injection of susceptible mice strains with multiple low doses of (STZ) provokes a condition with clinical and histoimmunological features similar to human Type 1 diabetes mellitus (DM). It has been established that five daily doses of 40 mg/kg/day of STZ are required for delayed onset, sustained and progressive hyperglycemia and insulitis in male C57BL/6 mice.
This model was previously used to study the role of proinflammatory cytokines in the development of Type 1 diabetes. 12 male C57BL/6J mice received MLD-STZ treatment. STZ was injected i.p. at a dose of 40 mg/kg/day, for 5 consecutive days. Glucose concentrations in venous blood was measured every day starting from the first day of treatment. Mice with glycemia over 250 mg/dl on three consecutive tests were considered diabetic, with the first detection of hyperglycemia taken as the date of diabetes onset. The mice were monitored for up to 60 days post first STZ injection. Reparixin was administered by s.c. continuous infusion starting from day −1 up to day 7 after first STZ injection at a dose of 8 mg/h/kg.
Male C57BL/6J mice were injected i.p. with (ML)-streptozotocin (STZ) at a dose of 40 mg/kg/day, for 5 consecutive days. Glucose concentrations in venous blood were measured every day starting from the first day of treatment (day 0). Mice with glycaemia over 250 mg/dl on three consecutive tests were considered diabetic, with the first detection of hyperglycemia taken as the date of diabetes onset. The mice were followed for up to 60 days post first STZ injection. Meraxin was administered per os at a dose of 15 mg/kg for 7 or 14 days, starting from day −1 of first STZ injection.
In a second set of experiments, the treatment with Meraxin for 14 days was started +5 (n=4) days after the first STZ injection to mimic the clinical setting of diabetes onset.

For the molecule `CC(C)Cc1ccc([C@@H](C)C(=O)NS(C)(=O)=O)cc1` [Reparixin, R(-)-2-[(4-isobutylphenyl)propionyl]-methanesulfonamide], the “glycemic levels after development of diabetes vs control mice” value was “significantly lower” and the “time to develop the disease compared to controls” value is reported as “more than double the time”. Moreover, the “glycaemia levels after diabetes development vs vehicle-treated group” value (Reparixin s.c. continuous infusion 8 mg/h/kg day -1 to day 7, whole two-month observation period) is “constantly and significantly lower”. The “median diabetes free time” value (Reparixin s.c. continuous infusion 8 mg/h/kg from day -1 up to day 7 after first STZ injection, n=8, p=0.026 vs ctrl) turned out to be 27 ± 15 days.
For the molecule `C[C@@H](C(=O)NS(C)(=O)=O)c1ccc(OS(=O)(=O)C(F)(F)F)cc1` [Meraxin, R(-)-2-[(4′-trifluoromethanesulfonyloxy)phenyl]propionyl-methanesulfonamide], the “glycemic levels after development of diabetes vs control mice” value is “significantly lower” and the “time to develop the disease compared to controls” value is recorded as “more than double the time”. For the same molecule, the diabetes onset result (Meraxin for 14 days started day +5 after first STZ injection (up to day 19), n=4) is “clearly prevented diabetes onset”. Moreover, under “Meraxin for 14 days started day +5 after first STZ injection, whole 2-month observation period”, the “glycaemic levels vs vehicle-treated mice” value is “constantly and significantly lower”. Further, the median diabetes-free time (Meraxin per os 15 mg/kg for 7 days starting from day -1, n=8, p=0.67 vs ctrl) is 13+2.8 days. For the same molecule, the median diabetes-free time (Meraxin per os 15 mg/kg for 14 days starting from day -1, n=8, p=0.016 vs ctrl) is 29+16.
